Results as given in the NIST ThermoML archive (doi:10.1021/je300810p).
Numbers after ± are expanded uncertainties.

Tests used:
[1] = Liquid; for mass density: 101.33 kPa, Pycnometric method
[2] = refractive index (Na D-line) (dimensionless); conditions: 101.33 kPa, Liquid, Standard Abbe refractometry

mass density ([1]; 298.15 K) [kg/m3]	vapor or sublimation pressure ([1]; 351.46 K) [kPa]	refractive index ([2]; 298.15 K)	vapor or sublimation pressure ([1]; 391.43 K) [kPa]	mass density ([1]; 289.15 K) [kg/m3]	vapor or sublimation pressure ([1]; 293.91 K) [kPa]	refractive index ([2]; 293.15 K)	Compound
784.88 ± 0.36	101.33 ± 2.6	1.3592 ± 0.0025					CCO [ethanol]
1049.42 ± 0.45		1.3716 ± 0.0025	101.33 ± 3.4				CC(=O)O [acetic acid]
				788.02 ± 0.36	101.33 ± 2.6	1.3328 ± 0.0025	CC=O [ethanal]
